For data set [1] the following is noted: mice bearing Lewis lung cancer, i.p. x 10 qd.
The test system of a further data set is Lewis lung cancer. Kind of data set: Tumor inhibition in murine model with Lewis lung cancer. It is filed as in vivo, C57BL/6J mice. The settings on record: for Tumor inhibiting rate / Tumor weight: 19th day after inoculation.
For data set [2] the following is noted: in vivo; cited from earlier work.
The test system of data set [3] is human leukemia HL-60 cells. The conditions noted are these: cited from earlier work.
The test system of the next data set is tumor cell strain K256. The settings on record: among dihydrobibenzyls and phenanthrenes in Dendrobium chrysotoxum; cited from earlier work.
The subject of another data set is liver cancer of mouse. The settings on record: cited from earlier work.
For data set [4] the following is noted: compared with 5FU; cited from earlier work.

As a reminder, the LD50 is the dose expected to kill half of the subjects tested.

For the molecule `O=P1(N(CCCl)CCCl)NCCCO1` (stereo not shown) [CTX, Cyclophosphamide, reference compound], in data set [1], the “General condition of the mice (signs of toxicity)” value is “signs of athrepsia, listlessness, and pilo-erection”. In the data set with Lewis lung cancer (30 mg/kg i.p. x 10 qd), this molecule yielded a Tumor inhibiting rate of 63.2% and a Tumor weight of 0.96 ± 0.13.

In the case of `COc1ccc(/C=C\c2cc(OC)c(OC)c(OC)c2)cc1O` [Combretastatin A-4], in data set [2], the 50% lethal dose (LD50) is recorded as 500 mg/kg.

In the data set with Lewis lung cancer (1 mg/kg i.p. x 10 qd), `N.N.[Cl][Pt][Cl]` [DDP, Cisplatin, reference compound] gave a Tumor inhibiting rate of 51.4% and a Tumor weight of 1.26 ± 0.15.

Regarding `COc1ccc(CCc2cc(OC)c(OC)c(OC)c2)cc1O` [Erianin], the Death result in data set [1] is “no death occurred”. Also, the “General condition of the mice (signs of toxicity)” value in data set [1] was “normal appetite, bright hair and free movements”. Also, the “inhibition of growth of HL-60 cells” value in data set [3] is recorded as “significantly inhibited”. In addition, the “inhibitory effect on the growth of tumor cell strain K256” value in the data set on tumor cell strain K256 was “most active”. Further, the tumor inhibitory rate in the data set on liver cancer of mouse is given as 50.82%. Moreover, the figures for the Tumor inhibiting rate with Lewis lung cancer (50 mg/kg i.p. x 10 qd), in the data set with Lewis lung cancer (100 mg/kg i.p. x 10 qd) and in the data set on Lewis lung cancer (200 mg/kg i.p. x 10 qd) were 38.8%, 46.0% and 55.6%, respectively. The values for the Tumor weight in the data set on Lewis lung cancer (50 mg/kg i.p. x 10 qd), in the data set on Lewis lung cancer (100 mg/kg i.p. x 10 qd) and in the data set with Lewis lung cancer (200 mg/kg i.p. x 10 qd) were 1.59 ± 0.26, 1.40 ± 0.31 and 1.15 ± 0.14, respectively. Besides, in the data set on Lewis lung cancer (mice bearing Lewis lung cancer, in words), the “Result assessment of tumor inhibiting effect” value is recorded as “quite effective”. In addition, the toxic side effect result in data set [4] is recorded as “far lower than 5FU”.
